Here are results for one compound from PMC4763008, “Selective Inhibition of Bakuchicin Isolated from Psoralea corylifolia on CYP1A in Human Liver Microsomes” (Evidence-based Complementary and Alternative Medicine : eCAM, 2016).

“Also recorded” adds a separate entry of the source. Read-outs that look alike come from different tables or passages of the source.

Format in all cases: in vitro ADME
One data set addresses T1, CYP2D6 (Homo sapiens, UniProt P10635).
T1 construct: each reaction was performed with 0.5 mg/mL pooled human liver microsomes; tissue Corning Gentest BD UltraPool HLM 150; host or cells: pooled human liver microsomes
Briefly: CYP inhibition, cocktail of probe substrates in pooled human liver microsomes: dextromethorphan O-demethylation. The following applies: pooled HLMs, dextromethorphan O-deethylation, substrate 5 μM.

For another data set, the target named is T2, CYP2E1 (Homo sapiens, UniProt P05181).
T2 construct: tissue Corning Gentest BD UltraPool HLM 150; host or cells: pooled human liver microsomes
T2 sequence (P05181 whole entry): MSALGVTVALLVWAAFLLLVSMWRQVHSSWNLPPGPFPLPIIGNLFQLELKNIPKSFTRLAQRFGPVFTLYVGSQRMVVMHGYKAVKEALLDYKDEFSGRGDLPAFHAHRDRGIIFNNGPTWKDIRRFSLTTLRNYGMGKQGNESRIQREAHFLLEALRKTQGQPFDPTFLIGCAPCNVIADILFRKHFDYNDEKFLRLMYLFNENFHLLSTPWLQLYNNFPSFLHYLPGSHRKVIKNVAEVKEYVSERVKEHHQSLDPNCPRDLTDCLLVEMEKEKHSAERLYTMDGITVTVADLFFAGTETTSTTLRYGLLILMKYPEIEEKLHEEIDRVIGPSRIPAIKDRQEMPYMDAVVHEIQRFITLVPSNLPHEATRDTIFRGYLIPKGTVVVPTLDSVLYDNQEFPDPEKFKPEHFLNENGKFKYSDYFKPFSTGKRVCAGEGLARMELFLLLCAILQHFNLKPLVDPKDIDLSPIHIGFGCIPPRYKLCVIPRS
Description: CYP inhibition, cocktail of probe substrates in pooled human liver microsomes: chlorzoxazone 6-hydroxylation. Particulars: pooled HLMs, substrate 50 μM. On the procedure: All incubations were performed in duplicate, and data are presented as means. Briefly, each reaction was performed with 0.5 mg/mL pooled human liver microsomes in a final incubation volume of 0.1 mL. The incubation medium consisted of 0.1 M potassium phosphate buffer (pH 7.4) containing cocktail of probe substrates and a NADPH-generating system (NGS) of 0.1 M glucose 6-phosphate, 10 mg/mL β-NADPH, and 1.0 U/mL glucose-6-phosphate dehydrogenase. To investigate the IC50 of bakuchicin during CYP1A inhibition, bakuchicin (at final concentrations of 0–25 μM) was incubated without preincubation. In addition, the mixture with bakuchicin was preincubated for 15 min without the probe substrate cocktail in the presence or absence of 1 mM β-NADPH. After the reaction was initiated by adding the NGS for 60 min, incubated samples were terminated by adding 100 μL acetonitrile containing 0.1% formic acid and 2.5 μL of internal standard solution (5 μM reserpine) in methanol. After mixing and centrifuging at 13,000 ×g for 12 min, a 5 μL aliquot was injected onto a C18 column for LC-MS/MS analysis.
(§1) All measurements were performed using LC-MS/MS in multiple reaction monitoring mode. LC-MS/MS was performed using an Accela™ LC system coupled to a TSQ Vantage triple quadrupole mass spectrometer (Thermo Fisher Scientific Inc., USA) equipped with a HESI-II Spray source. Electrospray ionization was performed in positive mode at a spray voltage of 3,500 V (except for the detection of 6-hydroxy chlorzoxazone). Nitrogen was used as a sheath and auxiliary gas at optimum values of 45 and 20 (arbitrary units), respectively. Vaporizer and capillary temperatures were 150 and 300°C, respectively. For LC analysis an Inertsil® ODS-2 (3 μm, 2.1 × 150 mm) column (GL Sciences Inc., Torrance, CA) was used. The mobile phase consisted of acetonitrile (mobile phase A) and water (mobile phase B), both of which contained 0.1% formic acid, at a flow rate of 0.22 mL/min at 30°C.
All incubations were performed in duplicate, and data are presented as means. […]

In a further data set the target is T3, CYP1A (Homo sapiens, UniProt P05177).
T3 sequence (P05177 2-516): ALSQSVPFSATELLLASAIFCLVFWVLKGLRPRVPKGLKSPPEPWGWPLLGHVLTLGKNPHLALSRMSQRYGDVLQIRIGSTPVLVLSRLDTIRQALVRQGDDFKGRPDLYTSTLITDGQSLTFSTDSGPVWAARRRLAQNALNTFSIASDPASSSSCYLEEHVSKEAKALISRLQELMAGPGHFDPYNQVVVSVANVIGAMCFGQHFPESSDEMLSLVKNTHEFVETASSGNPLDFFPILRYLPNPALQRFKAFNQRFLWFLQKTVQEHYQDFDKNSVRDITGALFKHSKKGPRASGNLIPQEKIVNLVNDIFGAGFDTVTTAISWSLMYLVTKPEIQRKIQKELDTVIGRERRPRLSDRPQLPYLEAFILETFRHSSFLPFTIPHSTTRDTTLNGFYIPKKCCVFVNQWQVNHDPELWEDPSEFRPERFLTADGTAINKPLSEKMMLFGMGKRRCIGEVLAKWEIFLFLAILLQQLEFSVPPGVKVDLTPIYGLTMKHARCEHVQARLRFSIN
Description: Inhibition mode on CYP1A-catalyzed phenacetin O-deethylation in HLMs (Lineweaver-Burk and secondary plot). Particulars: for inhibition mechanism on CYP1A in HLMs: pooled HLMs, phenacetin O-deethylation, Lineweaver-Burk plot / IC50 shift. As for the experimental part:
To characterize the inhibition mode on CYP1A by bakuchicin, 0.5 mg/mL of HLMs was incubated with bakuchicin at 0, 0.2, 0.4, and 0.8 μM in 0.1 M potassium phosphate buffer (pH 7.4) for 60 min at 37°C. Those were terminated by adding 100 μL acetonitrile containing 0.1% formic acid and 2.5 μL of internal standard solution (5 μM reserpine) in methanol. After mixing and centrifuging at 13,000 ×g for 12 min, a 5 μL aliquot was injected onto a C18 column for LC-MS/MS analysis. Phenacetin was used as a probe substrate at 20, 40, or 80 μM. The inhibition pattern was investigated by Michaelis-Menten and its secondary plotting.
as §1
All incubations were performed in duplicate, and data are presented as means. IC50 values (the concentration of inhibitor causing a 50% inhibition in enzyme activity) were obtained using percent activity versus log[I] concentration plots. Kinetic parameters were estimated by curve fitting using SigmaPlot (version 12.0, Systat Software, Inc.).

[1] abbreviates: 15 min preincubation with NADPH, read-out: IC50 With preincubation with NADPH.
The mark [2] stands for this setting: 15 min preincubation without NADPH, read-out: IC50 With preincubation Without NADPH.
[3] abbreviates: without preincubation, read-out: IC50 Without preincubation.

T1 sequence (P10635 whole entry): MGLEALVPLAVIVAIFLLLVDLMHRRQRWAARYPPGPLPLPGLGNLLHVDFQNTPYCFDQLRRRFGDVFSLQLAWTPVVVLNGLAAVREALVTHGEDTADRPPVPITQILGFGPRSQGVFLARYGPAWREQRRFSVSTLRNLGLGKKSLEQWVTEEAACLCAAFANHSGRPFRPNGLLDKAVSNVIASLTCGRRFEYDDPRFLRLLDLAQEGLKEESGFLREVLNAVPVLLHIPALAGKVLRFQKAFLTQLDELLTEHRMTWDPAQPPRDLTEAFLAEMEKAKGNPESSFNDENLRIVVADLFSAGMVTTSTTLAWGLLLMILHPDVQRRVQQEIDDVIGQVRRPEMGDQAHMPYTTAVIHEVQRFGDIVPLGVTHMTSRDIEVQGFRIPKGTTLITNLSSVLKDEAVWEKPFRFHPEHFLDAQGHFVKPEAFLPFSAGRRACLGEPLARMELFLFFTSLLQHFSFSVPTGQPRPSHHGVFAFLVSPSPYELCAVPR

Take `O=c1ccc2c(ccc3ccoc32)o1` [Bakuchicin]: the IC50 at CYP2D6 (setting [1]) was 15.1 µM; on CYP2D6 (setting [2]), 21.7 µM; at CYP2D6 (setting [3]), 18.2 µM; on CYP2E1 (setting [1]) it was more than 100 µM; on CYP2E1 (setting [2]) it was more than 100 µM; at CYP2E1 (setting [3]), more than 100 µM. Also, the Ki at 60 min on CYP1A (human, pooled human liver microsomes, pH 7.4, probe phenacetin (O-deethylation), phenacetin 20, 40, 80 μM, 60 min incubation) was found to be 0.09 µM. Besides, the “inhibition mechanism on CYP1A in HLMs” value is “reversible competitive inhibitor” on CYP1A and “competitive inhibition; also recorded: reversible inhibitor” at CYP1A (listed as bakuchicin).
